# Values of other authors in article PMC11284792, “Backbone-Determined Antiarrhythmic Structure–Activity Relationships for a Mirror Image, Oligomeric Depsipeptide Natural Product” (Journal of Medicinal Chemistry, 2024).
# Biological target: T1, RyR2 (Mus musculus, UniProt E9Q401)
# T1 construct: ventricular cardiomyocytes were isolated from C57Bl/6J mice, adhered to laminin-coated glass bottom culture dishes, permeabilized with saponin; endogenous in cells; host or cells: left ventricular cardiomyocytes freshly isolated from C57BL/6J mice, saponin-permeabilized
# Conditions: 25 μM drug, normalized to vehicle (DMSO), mean ± standard deviation, ref Johnston et al. ACS Med. Chem. Lett., 2022, 13(11), 1755–1762, cited from earlier work; for Normalized Calcium Leak: CSV supplement, ent-verticilide and Series 1; for Calcium spark Amplitude (normalized to vehicle) / Calcium spark Leak (normalized to vehicle) / Calcium spark Mass (normalized to vehicle) / Calcium spark Frequency (normalized to vehicle): Supplement Table 1; for Calcium spark Amplitude (normalized to vehicle) / Calcium spark Leak (normalized to vehicle) / Calcium spark Mass (normalized to vehicle): permeabilized murine cardiomyocytes; for Calcium spark Frequency (normalized to vehicle): permeabilized murine left ventricular myocytes, 15 min incubation
# Protocol: Supplement jm4c00923_si_002.csv, table | column: Normalized Calcium Leak || page 10: Johnston et al. Supporting Information mouse variability provided by Sikkel et al.5 Bonferroni-adjusted P values are reported in the figure legends. A cutoff value of 0.05 was used as the threshold to reject the null hypothesis. Safety: No unexpected or unusually high safety hazards were encountered. Biological Experiment Data: Calcium spark parameters For all series, assay is run with 25 μM solution of drug. Values are normalized to the vehicle (DMSO) condition and reported as mean ± standard deviation. Statistical comparisons were made using a hierarchical clustering model with Bonf ...
# T1 sequence (E9Q401 whole entry): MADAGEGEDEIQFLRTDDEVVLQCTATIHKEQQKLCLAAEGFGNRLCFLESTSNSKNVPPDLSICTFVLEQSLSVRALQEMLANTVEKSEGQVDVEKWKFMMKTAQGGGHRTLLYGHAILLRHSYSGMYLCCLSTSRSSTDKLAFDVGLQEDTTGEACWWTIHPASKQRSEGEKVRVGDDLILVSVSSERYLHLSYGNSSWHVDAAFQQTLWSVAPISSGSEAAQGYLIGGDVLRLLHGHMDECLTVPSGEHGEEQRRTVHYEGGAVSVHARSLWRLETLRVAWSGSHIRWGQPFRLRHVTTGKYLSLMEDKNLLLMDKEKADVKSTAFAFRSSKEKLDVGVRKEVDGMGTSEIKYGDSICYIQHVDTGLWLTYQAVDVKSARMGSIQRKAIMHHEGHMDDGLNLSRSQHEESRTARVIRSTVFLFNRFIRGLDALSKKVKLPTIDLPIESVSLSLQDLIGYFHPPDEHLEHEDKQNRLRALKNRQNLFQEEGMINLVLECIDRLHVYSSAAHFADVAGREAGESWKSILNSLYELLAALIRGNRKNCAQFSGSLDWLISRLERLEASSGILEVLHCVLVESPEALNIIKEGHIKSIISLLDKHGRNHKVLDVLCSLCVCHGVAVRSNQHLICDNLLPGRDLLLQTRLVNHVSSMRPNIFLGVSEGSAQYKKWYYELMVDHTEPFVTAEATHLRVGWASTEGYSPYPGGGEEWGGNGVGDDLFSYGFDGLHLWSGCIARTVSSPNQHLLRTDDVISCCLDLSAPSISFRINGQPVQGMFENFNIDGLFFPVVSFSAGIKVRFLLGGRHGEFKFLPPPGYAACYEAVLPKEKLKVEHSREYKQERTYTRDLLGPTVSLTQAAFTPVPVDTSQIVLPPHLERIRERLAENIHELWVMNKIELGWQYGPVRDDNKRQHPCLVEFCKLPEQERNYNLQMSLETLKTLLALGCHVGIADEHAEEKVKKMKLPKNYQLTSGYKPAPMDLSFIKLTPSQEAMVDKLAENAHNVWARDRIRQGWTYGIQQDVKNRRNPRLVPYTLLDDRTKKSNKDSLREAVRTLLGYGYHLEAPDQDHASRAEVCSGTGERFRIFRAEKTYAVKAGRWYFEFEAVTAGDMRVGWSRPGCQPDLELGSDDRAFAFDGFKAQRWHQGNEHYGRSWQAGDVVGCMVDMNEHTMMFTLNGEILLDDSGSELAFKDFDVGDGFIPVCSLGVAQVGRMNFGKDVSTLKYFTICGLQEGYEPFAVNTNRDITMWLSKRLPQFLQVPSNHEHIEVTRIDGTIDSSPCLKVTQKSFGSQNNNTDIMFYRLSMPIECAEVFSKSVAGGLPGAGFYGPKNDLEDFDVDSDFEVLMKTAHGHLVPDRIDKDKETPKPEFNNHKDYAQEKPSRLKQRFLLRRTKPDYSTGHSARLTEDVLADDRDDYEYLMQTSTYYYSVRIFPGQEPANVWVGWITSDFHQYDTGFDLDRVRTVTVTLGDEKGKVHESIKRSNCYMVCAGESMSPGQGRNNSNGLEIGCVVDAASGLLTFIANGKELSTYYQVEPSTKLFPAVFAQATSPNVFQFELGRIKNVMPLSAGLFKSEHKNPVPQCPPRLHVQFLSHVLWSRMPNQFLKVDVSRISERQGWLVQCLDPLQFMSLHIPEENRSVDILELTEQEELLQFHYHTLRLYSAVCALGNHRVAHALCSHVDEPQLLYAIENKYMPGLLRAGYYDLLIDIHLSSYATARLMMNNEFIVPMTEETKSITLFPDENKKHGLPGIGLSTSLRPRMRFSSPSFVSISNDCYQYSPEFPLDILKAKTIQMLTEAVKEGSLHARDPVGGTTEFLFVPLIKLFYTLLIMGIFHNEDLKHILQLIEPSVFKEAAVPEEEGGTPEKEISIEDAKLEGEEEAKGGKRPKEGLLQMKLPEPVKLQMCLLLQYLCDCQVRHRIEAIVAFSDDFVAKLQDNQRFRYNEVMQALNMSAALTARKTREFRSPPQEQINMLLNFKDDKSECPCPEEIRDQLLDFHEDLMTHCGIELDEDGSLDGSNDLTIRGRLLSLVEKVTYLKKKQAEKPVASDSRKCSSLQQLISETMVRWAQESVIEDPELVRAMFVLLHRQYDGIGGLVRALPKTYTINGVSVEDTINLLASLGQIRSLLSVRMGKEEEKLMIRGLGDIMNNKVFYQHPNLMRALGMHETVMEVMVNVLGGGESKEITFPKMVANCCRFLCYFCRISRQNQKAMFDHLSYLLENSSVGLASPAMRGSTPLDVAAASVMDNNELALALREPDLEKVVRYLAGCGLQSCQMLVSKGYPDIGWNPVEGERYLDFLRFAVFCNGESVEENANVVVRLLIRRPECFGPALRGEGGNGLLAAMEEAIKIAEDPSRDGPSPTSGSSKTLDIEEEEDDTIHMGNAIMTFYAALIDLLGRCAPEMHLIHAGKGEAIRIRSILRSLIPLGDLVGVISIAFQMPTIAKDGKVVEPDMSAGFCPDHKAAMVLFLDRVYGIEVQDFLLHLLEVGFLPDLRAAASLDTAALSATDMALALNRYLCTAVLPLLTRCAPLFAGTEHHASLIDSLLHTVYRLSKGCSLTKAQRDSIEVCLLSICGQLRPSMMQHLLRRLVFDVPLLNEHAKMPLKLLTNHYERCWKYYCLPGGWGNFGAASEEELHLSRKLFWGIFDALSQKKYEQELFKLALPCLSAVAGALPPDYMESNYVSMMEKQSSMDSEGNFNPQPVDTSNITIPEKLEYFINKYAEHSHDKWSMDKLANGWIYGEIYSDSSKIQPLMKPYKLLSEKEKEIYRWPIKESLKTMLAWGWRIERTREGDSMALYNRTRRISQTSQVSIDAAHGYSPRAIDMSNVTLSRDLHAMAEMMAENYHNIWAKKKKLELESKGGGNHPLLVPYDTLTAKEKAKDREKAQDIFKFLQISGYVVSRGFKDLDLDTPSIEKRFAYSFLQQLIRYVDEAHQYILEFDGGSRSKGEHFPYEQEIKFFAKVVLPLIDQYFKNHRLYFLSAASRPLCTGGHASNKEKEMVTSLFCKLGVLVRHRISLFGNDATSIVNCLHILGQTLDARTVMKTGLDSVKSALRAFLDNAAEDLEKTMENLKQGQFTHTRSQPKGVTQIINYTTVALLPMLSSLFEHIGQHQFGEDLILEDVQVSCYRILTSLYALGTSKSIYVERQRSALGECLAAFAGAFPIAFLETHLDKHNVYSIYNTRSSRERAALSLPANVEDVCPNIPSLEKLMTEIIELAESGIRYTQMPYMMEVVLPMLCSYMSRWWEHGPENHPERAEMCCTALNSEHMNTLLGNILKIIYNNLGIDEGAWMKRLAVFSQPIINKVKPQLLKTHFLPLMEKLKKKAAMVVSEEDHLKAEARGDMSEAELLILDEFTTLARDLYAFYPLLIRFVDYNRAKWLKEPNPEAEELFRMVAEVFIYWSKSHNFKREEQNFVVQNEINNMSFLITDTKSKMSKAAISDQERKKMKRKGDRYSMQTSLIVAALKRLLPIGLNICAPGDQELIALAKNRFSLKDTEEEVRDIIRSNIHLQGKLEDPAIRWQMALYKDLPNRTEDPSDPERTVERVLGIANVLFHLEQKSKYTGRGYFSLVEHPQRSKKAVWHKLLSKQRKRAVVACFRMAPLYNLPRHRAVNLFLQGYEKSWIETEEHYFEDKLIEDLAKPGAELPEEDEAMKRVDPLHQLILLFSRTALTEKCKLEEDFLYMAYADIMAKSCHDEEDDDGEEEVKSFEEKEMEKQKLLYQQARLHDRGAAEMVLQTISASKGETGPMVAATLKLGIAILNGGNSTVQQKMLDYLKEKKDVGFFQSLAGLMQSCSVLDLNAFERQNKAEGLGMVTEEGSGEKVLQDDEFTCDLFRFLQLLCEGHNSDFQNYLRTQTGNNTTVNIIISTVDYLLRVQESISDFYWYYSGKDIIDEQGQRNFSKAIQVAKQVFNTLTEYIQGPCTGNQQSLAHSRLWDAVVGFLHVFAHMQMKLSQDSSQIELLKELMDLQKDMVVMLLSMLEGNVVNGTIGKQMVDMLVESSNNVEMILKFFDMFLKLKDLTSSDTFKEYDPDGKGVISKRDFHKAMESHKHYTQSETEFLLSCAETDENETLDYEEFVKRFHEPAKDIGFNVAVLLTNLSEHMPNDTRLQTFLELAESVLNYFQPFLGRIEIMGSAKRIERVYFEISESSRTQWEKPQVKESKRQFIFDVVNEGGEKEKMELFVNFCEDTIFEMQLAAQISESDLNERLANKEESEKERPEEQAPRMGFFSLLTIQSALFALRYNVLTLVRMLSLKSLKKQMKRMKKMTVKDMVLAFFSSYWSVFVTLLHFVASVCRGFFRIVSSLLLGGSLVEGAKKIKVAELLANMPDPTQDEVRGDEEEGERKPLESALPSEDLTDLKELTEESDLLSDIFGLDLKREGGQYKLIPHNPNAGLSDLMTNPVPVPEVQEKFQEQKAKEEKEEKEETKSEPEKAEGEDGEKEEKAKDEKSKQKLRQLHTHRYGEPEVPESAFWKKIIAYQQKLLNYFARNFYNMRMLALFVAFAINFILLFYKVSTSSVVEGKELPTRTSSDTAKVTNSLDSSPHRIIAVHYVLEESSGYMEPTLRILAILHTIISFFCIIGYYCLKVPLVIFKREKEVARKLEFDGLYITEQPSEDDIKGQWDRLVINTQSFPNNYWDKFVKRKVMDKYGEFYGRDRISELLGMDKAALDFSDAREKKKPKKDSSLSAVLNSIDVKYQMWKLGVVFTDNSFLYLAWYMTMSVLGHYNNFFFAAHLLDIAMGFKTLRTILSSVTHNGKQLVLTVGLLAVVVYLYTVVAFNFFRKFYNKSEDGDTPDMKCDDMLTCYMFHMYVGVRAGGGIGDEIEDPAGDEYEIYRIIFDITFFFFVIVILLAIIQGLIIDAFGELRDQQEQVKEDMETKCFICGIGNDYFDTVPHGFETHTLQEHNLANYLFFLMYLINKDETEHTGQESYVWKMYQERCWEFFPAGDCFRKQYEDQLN
Substance,Normalized Calcium Leak,Calcium spark Amplitude (normalized to vehicle),Calcium spark Leak (normalized to vehicle),Calcium spark Mass (normalized to vehicle),Calcium spark Frequency (normalized to vehicle)
"(3R,6S,9R,12S,15R,18S,21R,24S)-3,4,9,10,15,16,21-heptamethyl-6,12,18,24-tetrapentyl-1,7,13,19-tetraoxa-4,10,16,22-tetraazacyclotetracosan-2,5,8,11,14,17,20,23-octaone [1.1]",1.02 ± 0.71,1.01 ± 0.25,1.02 ± 0.71,0.98 ± 0.59,1.03 ± 0.27
"(3R,6S,9R,12S,15R,18S,21R,24S)-3,4,9,15,21-pentamethyl-6,12,18,24-tetrapentyl-1,7,13,19-tetraoxa-4,10,16,22-tetraazacyclotetracosan-2,5,8,11,14,17,20,23-octaone [1.4]",0.77 ± 0.53,0.93 ± 0.24,0.77 ± 0.53,0.84 ± 0.32,0.90 ± 0.36
"(3R,6S,9R,12S,15R,18S,21R,24S)-3,4,9,15,16,21-hexamethyl-6,12,18,24-tetrapentyl-1,7,13,19-tetraoxa-4,10,16,22-tetraazacyclotetracosan-2,5,8,11,14,17,20,23-octaone [1.3]",0.90 ± 0.60,1.04 ± 0.28,0.90 ± 0.60,0.91 ± 0.48,0.96 ± 0.29
